ChEMBL document CHEMBL1137901, “Biaryl guanidine inhibitors of in vitro HCV-IRES activity” (Bioorg Med Chem Lett, 2004)

Experiments:
Hepatitis C virus [1] = assay: In vitro inhibitory concentration against hepatitis C virus internal ribosome entry site (HCV-IRES) translation; assay type: functional, Hepacivirus hominis
Hepatitis C virus [2] = assay: Selectivity was determined as the ratio of IC50 of non-IRES to that of IC50 of HCV-IRES; assay type: functional, Hepacivirus hominis
[3] = In vitro inhibitory concentration against non internal ribosome entry site translation; assay type: functional

| IC50 (Hepatitis C virus [1]) | IC50 [3] | Structure (SMILES) | Selectivity (Hepatitis C virus [2]) |
| --- | --- | --- | --- |
| 32 µM |  | Cc1cc(C)nc(/N=C(\N)NCCc2cccnc2)n1 | 4 |
| 54 µM |  | Cc1cc(C)nc(/N=C(\N)NCCc2ccc([N+](=O)[O-])cc2)n1 | 1.5 |
| 46 µM |  | Cc1ccnc(/N=C(\N)NCCc2ccccc2)n1 | 3.5 |
| > 200 µM | > 200 µM | Cc1cc(C)nc(/N=C(\N)NCCc2ccc(C(=O)O)cc2)n1 |  |
| 75 µM |  | Cc1cc(C)nc(/N=C(\N)NC[C@H](O)c2ccccc2)n1 | >2.7 |
| 9.7 µM |  | Cc1cc(C)nc(/N=C(\N)NC[C@@H](O)c2ccccc2)n1 | >2.2 |
| > 200 µM | > 200 µM | Cc1cc(C)nc(NC(=N)NCCc2ccccc2)c1 |  |
| 19 µM |  | Cc1nc(/N=C(\N)NCCc2ccccc2)nc(C)c1O | 3.6 |
| > 200 µM | > 200 µM | Cc1cc(C)cc(NC(=N)NCCc2ccccc2)c1 |  |
| 55 µM |  | Cc1cc(C)nc(/N=C(\N)NCCc2ccncc2)n1 | >3.6 |
| 75 µM |  | Cc1cc(C)nc(/N=C(\N)NCC(c2ccccc2)c2ccccc2)n1 | >2.7 |
| 50 µM |  | Cc1cc(C)nc(/N=C(\N)NCCc2ccc(Br)cc2)n1 | 2.5 |
| 15 µM |  | Cc1cc(C)nc(/N=C(\N)NCCc2ccccc2C)n1 | 1.8 |
| 29 µM |  | COC(=O)c1ccc(CC/N=C(\N)Nc2nc(C)cc(C)n2)cc1 | 3.4 |
| 8.1 µM |  | Cc1nc(/N=C(\N)NCCc2ccccc2)nc(C)c1Br | 2.2 |
| > 200 µM | > 200 µM | Cc1cc(C)nc(/N=C(\N)NCCc2ccc(C(C)(C)C)cc2)n1 |  |
| 25 µM |  | COc1ccc(CCNC(=N)Nc2nc(C)cc(C)n2)cc1 | 4.1 |
| 38 µM |  | Cc1cc(C)nc(/N=C(\N)NCc2cccs2)n1 | 1.3 |
| 23 µM |  | Cc1cccc(CC/N=C(\N)Nc2nc(C)cc(C)n2)c1 | 2.8 |

| IC50 (Hepatitis C virus [1]) | IC50 [3] | Structure (SMILES) | Selectivity (Hepatitis C virus [2]) |
| --- | --- | --- | --- |
| 92 µM |  | Cc1cc(C)nc(/N=C(\N)NCCc2ccc(OC(F)(F)F)cc2)n1 | >2.2 |
| 35 µM |  | COc1cc(OC)nc(/N=C(\N)NCCc2ccccc2)n1 | 5 |
| 23 µM |  | Cc1cc(C)nc(/N=C(\N)NCCc2ccc(F)cc2)n1 | 4.1 |
| 24 µM |  | Cc1cc(C)nc(/N=C(\N)NCCc2ccc(Cl)cc2)n1 | 2.3 |
| 9.9 µM |  | COc1c(C)nc(/N=C(\N)NCCc2ccccc2)nc1C | 3.4 |
| 16 µM |  | Cc1cc(C)nc(/N=C(\N)NCCc2ccccc2Cl)n1 | 1.8 |
| 2.1 µM |  | Cc1nc(/N=C(\N)NCCc2ccccc2)nc(C)c1OCCCN(C)C | 2 |
| 12 µM |  | Cc1cc(C)nc(/N=C(\N)NCCc2cccc(Cl)c2)n1 | 1.8 |
| 26 µM |  | COc1cc(CC/N=C(\N)Nc2nc(C)cc(C)n2)cc(OC)c1 | >7.7 |
| 68 µM |  | COc1ccc(CC/N=C(\N)Nc2nc(C)cc(C)n2)c(OC)c1 | 2.6 |
| 34 µM |  | Cc1ccc(CC/N=C(\N)Nc2nc(C)cc(C)n2)cc1 | 3.8 |
| 82 µM |  | Cc1cc(C)nc(/N=C(\N)NCCc2ccc(C(F)(F)F)cc2)n1 | 2.2 |
| 13 µM |  | COc1ccccc1CC/N=C(\N)Nc1nc(C)cc(C)n1 | 1.8 |
| 23 µM |  | Cc1cc(C)nc(/N=C(\N)NCCc2ccc3ccccc3n2)n1 | 3.7 |
| 13 µM |  | CCc1cc(CC)nc(/N=C(\N)NCCc2ccccc2)n1 | 2.2 |
| 23 µM |  | Cc1ccc(CC/N=C(\N)Nc2nc(C)cc(C)n2)c(C)c1 | 3.3 |
| 97 µM |  | Cc1cc(C)nc(/N=C(\N)NCc2ccco2)n1 | >2 |
| 100 µM |  | COc1cc(OC)c(CC/N=C(\N)Nc2nc(C)cc(C)n2)c(OC)c1 | >2 |
| 39 µM |  | Cc1cc(C)nc(/N=C(\N)NCCc2ccccn2)n1 | 2.4 |

| IC50 (Hepatitis C virus [1]) | IC50 [3] | Structure (SMILES) | Selectivity (Hepatitis C virus [2]) |
| --- | --- | --- | --- |
| 104 µM |  | Cc1cc(C)nc(N/C(N)=N/CCc2ccc(C(C)C)cc2)n1 | >1.9 |
| 94 µM |  | COc1ccc(OC)c(CC/N=C(\N)Nc2nc(C)cc(C)n2)c1 | >2.1 |
| > 200 µM | > 200 µM | Cc1cc(C)nc(NC(=N)N(C)CCc2ccccc2)n1 |  |
| 82 µM |  | CCOc1ccc(CC/N=C(\N)Nc2nc(C)cc(C)n2)cc1 | >2.4 |
| > 200 µM | > 200 µM | Cc1cc(C)nc(NC(=O)NCCc2ccccc2)n1 |  |
| > 200 µM | > 200 µM | Cc1cc(C)nc(/N=C(\S)NCCc2ccccc2)n1 |  |
| 35 µM |  | Cc1cc(C)nc(N/C(N)=N/C[C@H](C)c2ccccc2)n1 | 5.7 |
| > 200 µM | > 200 µM | Cc1cc(C)nc(N(C)C(=N)NCCc2ccccc2)n1 |  |
| 80 µM |  | Cc1cc(C)nc(/N=C(\N)NCCc2ccc(-c3ccccc3)cc2)n1 | >2.5 |
| 49 µM |  | Cc1cc(C)nc(/N=C(\N)NCCc2ccc(O)cc2)n1 | 3 |
| 35 µM |  | Cc1ccc(C)c(CC/N=C(\N)Nc2nc(C)cc(C)n2)c1 | 5.7 |
| 25 µM |  | Cc1cc(C)nc(/N=C(\N)NCc2cc3ccccc3o2)n1 | 2.8 |
| 4.2 µM |  | Cc1nc(/N=C(\N)NCCc2ccccc2)nc(C)c1C | 1.3 |
| 9.6 µM |  | Cc1cc(C)nc(/N=C(\N)NCCc2ccccc2)n1 | 2.4 |
| 150 µM |  | Cc1cc(C)nc(/N=C(\N)NCCCc2ccccc2)n1 | 1.3 |
| 21 µM |  | Cc1cc(C)nc(N/C(N)=N/C[C@@H](C)c2ccccc2)n1 | 1.9 |
| 7.6 µM |  | Cc1cc(C)nc(/N=C(\N)NCc2ccccc2)n1 | 2.6 |
| 61 µM |  | Cc1cc(C)nc(/N=C(\N)NCCc2ccc(N)cc2)n1 | 2.5 |
| 23 µM |  | Cc1cc(C)nc(/N=C(\N)NCc2nc3ccccc3[nH]2)n1 | 1.7 |
